Experimental data taken from ChEMBL document CHEMBL2321758, “Discovery of 4-{4-[(3R)-3-Methylmorpholin-4-yl]-6-[1-(methylsulfonyl)cyclopropyl]pyrimidin-2-yl}-1H-indole (AZ20): a potent and selective inhibitor of ATR protein kinase with monotherapy in vivo antitumor activity” (J Med Chem, 2013).
In brackets after ≈: the same amount, converted by molar mass. Activity calls are given as the source filed them. The rule behind the calls is not given here.

Tests used:
[1] = molecular target: T1, Serine/threonine-protein kinase ATR (Homo sapiens, UniProt Q13535); format: cell-based, HT-29
[2] = molecular target: T1, Serine/threonine-protein kinase ATR
physchem = conditions: octanol/buffer, pH 7.4
[3] = Aqueous solubility of the compound at pH 7.4; format: physicochemical; conditions: buffer
[4] = Apparent permeability from apical to basolateral side in human Caco2 cells at 10 uM at pH 6.5; format: ADME, cell-based; conditions: Caco-2, pH 6.5
[5] = Solubility of the compound in phosphate buffer after 24 hrs at pH 7.4 by LC-UV-MS analysis; format: physicochemical
in vitro = conditions: rat, hepatocytes
[6] = Fraction unbound in rat plasma; format: ADME, cell-free
[7] = molecular target: Voltage-gated inwardly rectifying potassium channel KCNH2 (Homo sapiens, UniProt Q12809)
[8] = molecular target: T2, Serine/threonine-protein kinase mTOR (Homo sapiens, UniProt P42345); experiment: Inhibition of mTOR-mediated AKT phosphorylation at serine 473 in human MDA-MB-468 cells; format: cell-based
[9] = AUC in Han-Wistar rat at 4 umol/kg, po; format: ADME, organism-based; conditions: plasma
[10] = molecular target: T3, Phosphatidylinositol 4,5-bisphosphate 3-kinase catalytic subunit alpha isoform (Homo sapiens, UniProt P42336); experiment: Inhibition of PI3Kalpha (unknown origin)
[11] = Dissociation constant, pKa of the compound; format: physicochemical
[12] = Volume of distribution in rat; format: ADME, organism-based; conditions: in vivo
[13] = Bioavailability in rat; format: ADME, organism-based; conditions: in vivo
[14] = Plasma clearance in rat; format: ADME, organism-based
[15] = molecular target: T2, Serine/threonine-protein kinase mTOR; experiment: Inhibition of recombinant mTOR (unknown origin)
[16] = molecular target: DNA-dependent protein kinase catalytic subunit (Homo sapiens, UniProt P78527); experiment: Inhibition of DNA-PK (unknown origin)
LoVo [17] = experiment: Antitumor activity against human LoVo cells xenografted in Swiss nu/nu mouse assessed as tumor growth inhibition at 50 mg/kg, po qd for 13 days relative to control; format: functional, organism-based; parameters: dose 50 mg/kg
LoVo [18] = experiment: Antitumor activity against human LoVo cells xenografted in Swiss nu/nu mouse assessed as tumor growth inhibition at 25 mg/kg, po bid for 13 days relative to control; format: functional, organism-based; parameters: dose 25 mg/kg
[19] = molecular target: T2, Serine/threonine-protein kinase mTOR; experiment: Inhibition of recombinant mTOR (unknown origin) assessed as residual activity at 1 uM
[20] = molecular target: T3, Phosphatidylinositol 4,5-bisphosphate 3-kinase catalytic subunit alpha isoform; experiment: Inhibition of PI3Kalpha (unknown origin) assessed as residual activity at 1 uM
[21] = Oral bioavailability in Han-Wistar rat at 4 umol/kg; format: ADME, organism-based; conditions: in vivo

T1 sequence (Q13535 whole entry): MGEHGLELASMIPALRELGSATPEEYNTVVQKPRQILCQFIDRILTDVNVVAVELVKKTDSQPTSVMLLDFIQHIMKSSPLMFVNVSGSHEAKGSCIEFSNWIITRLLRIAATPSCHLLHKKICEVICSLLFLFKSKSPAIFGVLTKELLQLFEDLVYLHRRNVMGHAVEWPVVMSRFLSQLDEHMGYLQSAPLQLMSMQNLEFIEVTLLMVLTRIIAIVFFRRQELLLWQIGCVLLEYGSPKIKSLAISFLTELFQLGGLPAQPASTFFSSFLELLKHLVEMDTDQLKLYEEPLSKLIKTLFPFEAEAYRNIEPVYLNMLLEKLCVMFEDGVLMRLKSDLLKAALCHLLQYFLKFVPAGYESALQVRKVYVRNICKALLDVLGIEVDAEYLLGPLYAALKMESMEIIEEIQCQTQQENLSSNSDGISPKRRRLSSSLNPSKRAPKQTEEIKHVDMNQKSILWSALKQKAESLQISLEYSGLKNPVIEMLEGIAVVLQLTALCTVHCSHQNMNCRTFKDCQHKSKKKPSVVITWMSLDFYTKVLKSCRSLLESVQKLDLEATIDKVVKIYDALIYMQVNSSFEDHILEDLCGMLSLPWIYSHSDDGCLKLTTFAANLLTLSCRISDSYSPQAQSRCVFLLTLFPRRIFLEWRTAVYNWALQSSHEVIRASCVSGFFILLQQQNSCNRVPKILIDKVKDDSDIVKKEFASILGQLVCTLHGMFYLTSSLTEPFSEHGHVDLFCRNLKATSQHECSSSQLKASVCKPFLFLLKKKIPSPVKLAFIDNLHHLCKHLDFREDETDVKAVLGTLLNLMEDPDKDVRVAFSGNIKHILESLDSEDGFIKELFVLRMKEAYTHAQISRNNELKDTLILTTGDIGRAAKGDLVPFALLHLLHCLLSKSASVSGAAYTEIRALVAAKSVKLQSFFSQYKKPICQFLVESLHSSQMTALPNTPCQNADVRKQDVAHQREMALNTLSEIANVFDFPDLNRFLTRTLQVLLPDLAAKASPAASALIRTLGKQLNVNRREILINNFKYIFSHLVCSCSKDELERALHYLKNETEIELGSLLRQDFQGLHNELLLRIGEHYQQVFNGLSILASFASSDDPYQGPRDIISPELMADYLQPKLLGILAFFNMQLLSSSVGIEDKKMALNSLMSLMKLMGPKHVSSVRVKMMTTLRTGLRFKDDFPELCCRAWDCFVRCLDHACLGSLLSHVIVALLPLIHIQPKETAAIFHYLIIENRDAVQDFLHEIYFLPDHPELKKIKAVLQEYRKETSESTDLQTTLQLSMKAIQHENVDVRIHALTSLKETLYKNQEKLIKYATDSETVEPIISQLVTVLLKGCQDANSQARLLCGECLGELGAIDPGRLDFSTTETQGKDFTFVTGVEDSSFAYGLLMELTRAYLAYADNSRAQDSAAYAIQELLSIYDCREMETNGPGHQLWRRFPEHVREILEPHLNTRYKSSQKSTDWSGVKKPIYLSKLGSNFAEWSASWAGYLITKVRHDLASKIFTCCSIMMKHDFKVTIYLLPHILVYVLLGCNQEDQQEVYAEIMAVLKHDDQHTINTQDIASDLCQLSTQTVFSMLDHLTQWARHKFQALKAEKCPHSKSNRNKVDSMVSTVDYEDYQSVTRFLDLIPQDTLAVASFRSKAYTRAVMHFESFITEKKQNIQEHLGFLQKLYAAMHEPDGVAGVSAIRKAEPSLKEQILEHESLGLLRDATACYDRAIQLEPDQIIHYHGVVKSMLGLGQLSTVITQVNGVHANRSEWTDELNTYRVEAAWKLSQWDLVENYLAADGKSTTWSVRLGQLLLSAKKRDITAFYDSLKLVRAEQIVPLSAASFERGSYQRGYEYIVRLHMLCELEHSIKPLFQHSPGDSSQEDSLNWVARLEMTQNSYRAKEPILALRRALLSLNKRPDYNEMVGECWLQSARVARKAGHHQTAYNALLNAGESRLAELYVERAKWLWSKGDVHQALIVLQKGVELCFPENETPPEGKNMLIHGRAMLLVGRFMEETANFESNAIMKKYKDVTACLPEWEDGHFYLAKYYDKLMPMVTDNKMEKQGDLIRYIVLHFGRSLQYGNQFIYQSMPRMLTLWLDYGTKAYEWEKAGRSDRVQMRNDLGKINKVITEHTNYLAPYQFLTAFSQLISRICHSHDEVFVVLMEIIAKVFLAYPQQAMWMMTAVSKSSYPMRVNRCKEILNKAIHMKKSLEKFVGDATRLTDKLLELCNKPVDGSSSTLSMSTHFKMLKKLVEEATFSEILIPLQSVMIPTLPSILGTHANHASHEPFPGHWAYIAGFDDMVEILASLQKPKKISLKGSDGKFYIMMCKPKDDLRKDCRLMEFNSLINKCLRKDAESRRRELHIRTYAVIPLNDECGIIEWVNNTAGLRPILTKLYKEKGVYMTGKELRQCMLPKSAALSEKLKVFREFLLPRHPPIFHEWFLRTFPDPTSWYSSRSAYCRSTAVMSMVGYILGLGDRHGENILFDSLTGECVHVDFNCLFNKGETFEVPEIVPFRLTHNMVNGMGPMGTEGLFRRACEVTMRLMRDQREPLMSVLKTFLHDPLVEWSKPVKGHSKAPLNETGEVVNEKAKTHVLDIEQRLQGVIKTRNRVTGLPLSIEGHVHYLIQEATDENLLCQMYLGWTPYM
T3 sequence (P42336 whole entry, canonical isoform): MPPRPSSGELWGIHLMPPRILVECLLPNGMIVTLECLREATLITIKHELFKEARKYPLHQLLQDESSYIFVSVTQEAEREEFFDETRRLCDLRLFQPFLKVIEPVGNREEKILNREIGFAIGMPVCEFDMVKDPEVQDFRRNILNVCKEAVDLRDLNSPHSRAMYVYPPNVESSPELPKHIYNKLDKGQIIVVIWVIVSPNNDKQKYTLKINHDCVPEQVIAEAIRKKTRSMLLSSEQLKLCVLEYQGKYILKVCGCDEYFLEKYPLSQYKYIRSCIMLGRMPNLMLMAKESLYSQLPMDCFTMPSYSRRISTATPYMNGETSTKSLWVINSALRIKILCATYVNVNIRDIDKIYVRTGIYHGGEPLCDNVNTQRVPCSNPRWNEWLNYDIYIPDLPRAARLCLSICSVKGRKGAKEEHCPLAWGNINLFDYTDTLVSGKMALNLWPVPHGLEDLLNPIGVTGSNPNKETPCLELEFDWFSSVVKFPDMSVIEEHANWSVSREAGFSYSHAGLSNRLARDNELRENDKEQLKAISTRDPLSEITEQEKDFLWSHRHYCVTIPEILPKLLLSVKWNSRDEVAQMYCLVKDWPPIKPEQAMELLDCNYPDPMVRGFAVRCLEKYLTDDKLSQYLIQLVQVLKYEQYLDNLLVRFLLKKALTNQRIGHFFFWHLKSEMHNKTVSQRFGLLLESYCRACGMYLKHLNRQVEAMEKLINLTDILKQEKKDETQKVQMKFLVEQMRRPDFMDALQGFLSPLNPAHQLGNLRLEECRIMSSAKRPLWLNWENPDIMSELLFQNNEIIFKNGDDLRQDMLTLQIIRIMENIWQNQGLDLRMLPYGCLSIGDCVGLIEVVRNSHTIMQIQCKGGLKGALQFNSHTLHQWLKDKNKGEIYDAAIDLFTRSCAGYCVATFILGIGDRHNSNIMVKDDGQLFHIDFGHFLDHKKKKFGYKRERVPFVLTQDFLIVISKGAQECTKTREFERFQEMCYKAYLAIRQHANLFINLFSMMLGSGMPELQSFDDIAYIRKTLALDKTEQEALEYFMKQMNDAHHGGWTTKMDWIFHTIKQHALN
Voltage-gated inwardly rectifying potassium channel KCNH2, sequence (Q12809 whole entry): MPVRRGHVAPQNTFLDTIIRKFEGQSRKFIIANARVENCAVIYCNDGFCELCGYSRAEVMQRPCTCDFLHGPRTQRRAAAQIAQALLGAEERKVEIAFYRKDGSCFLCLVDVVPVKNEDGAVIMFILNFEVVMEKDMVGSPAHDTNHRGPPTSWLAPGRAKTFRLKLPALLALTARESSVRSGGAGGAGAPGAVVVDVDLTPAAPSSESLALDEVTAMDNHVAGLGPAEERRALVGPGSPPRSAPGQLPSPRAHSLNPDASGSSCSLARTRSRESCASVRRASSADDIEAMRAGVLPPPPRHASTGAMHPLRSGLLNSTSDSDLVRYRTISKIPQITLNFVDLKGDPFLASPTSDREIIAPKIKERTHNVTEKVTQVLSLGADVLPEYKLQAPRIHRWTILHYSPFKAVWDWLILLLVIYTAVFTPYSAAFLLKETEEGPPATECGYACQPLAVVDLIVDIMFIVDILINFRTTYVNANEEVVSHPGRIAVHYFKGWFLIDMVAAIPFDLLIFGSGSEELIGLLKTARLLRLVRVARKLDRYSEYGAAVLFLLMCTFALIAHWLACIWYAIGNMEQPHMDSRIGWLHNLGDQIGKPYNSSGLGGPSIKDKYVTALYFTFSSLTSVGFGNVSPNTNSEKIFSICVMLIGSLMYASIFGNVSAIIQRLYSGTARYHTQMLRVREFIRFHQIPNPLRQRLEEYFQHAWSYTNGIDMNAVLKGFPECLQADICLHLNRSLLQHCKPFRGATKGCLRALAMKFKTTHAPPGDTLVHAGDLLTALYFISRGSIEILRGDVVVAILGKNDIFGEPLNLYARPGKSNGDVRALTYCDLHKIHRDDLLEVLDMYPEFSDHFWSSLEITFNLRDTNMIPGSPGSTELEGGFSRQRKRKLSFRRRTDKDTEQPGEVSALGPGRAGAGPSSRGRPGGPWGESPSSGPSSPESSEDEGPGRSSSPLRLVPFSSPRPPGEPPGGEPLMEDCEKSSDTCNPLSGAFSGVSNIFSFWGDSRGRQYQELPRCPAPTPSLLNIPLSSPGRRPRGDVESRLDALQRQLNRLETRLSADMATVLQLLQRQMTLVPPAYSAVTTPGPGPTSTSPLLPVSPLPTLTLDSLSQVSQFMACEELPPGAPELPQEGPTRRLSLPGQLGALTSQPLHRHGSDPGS

Structure (SMILES)	IC50 [1]	IC50 [2]	other results
CC(C)S(=O)(=O)C1(c2cc(N3CCOCC3)nc(-c3cccc4[nH]ccc34)n2)CC1	0.77 µM	0.013 µM	
CS(=O)(=O)C1(c2cc(N3CCOCC3)nc(-c3ccccc3)n2)CC1	> 30 µM	0.36 µM	
CC[C@@H]1COCCN1c1cc(C2(S(C)(=O)=O)CC2)nc(-c2cccc3[nH]ccc23)n1	4.4 µM	0.17 µM	logD (physchem): 3
Cn1ccc2c(-c3nc(CS(C)(=O)=O)cc(N4CCOCC4)n3)cccc21	> 30 µM	3.3 µM	
Cc1ccc2[nH]ccc2c1-c1nc(N2CCOCC2)cc(C2(S(C)(=O)=O)CC2)n1	> 30 µM		solubility [3]: 96 µM (≈ 39.6 µg/mL)
CS(=O)(=O)C1(c2cc(N3CCOCC3)nc(-c3cccc4[nH]ccc34)n2)CCNCC1	0.42 µM	0.009 µM	Papp A→B at 10 µM [4]: 0.2 ×10⁻⁶ cm/s; logD (physchem): 0.7; solubility at 24 h [5]: 230 µM (≈ 102 µg/mL); hepatocyte CLint at 1 µM (in vitro): 9.4 µL/min/1e6 cells; fraction unbound [6]: 0.4; IC50 [7]: > 33 µM; IC50 [8]: 1.5 µM; AUC [9]: 0.04 µM·h; pKa [11]: 8.8; IC50 [10]: 2.7 µM
O=S(=O)(C1CCNCC1)C1(c2cc(N3CCOCC3)nc(-c3cccc4[nH]ccc34)n2)CC1	2.9 µM	0.046 µM	
Cc1cc2c(-c3nc(N4CCOCC4)cc(C4(S(C)(=O)=O)CC4)n3)cccc2[nH]1	2.5 µM	0.028 µM	
CS(=O)(=O)C1(c2cc(N3CCOCC3)nc(-c3cc(C#N)cc4[nH]ccc34)n2)CC1	1.5 µM		
CS(=O)(=O)C1(c2cc(N3CCOCC3)nc(-c3cccc4[nH]ccc34)n2)CC1			Papp A→B at 10 µM [4]: 21 ×10⁻⁶ cm/s; logD (physchem): 2.2; solubility at 24 h [5]: 4.4 µM (≈ 1.75 µg/mL); hepatocyte CLint at 1 µM (in vitro): < 3 µL/min/1e6 cells; fraction unbound [6]: 0.23; Vd [12]: 2.1 L/kg; bioavailability [13]: 70%; IC50 [8]: 3.2 µM; AUC [9]: 3.1 µM·h; IC50 [10]: 0.94 µM; clearance [14]: 15 mL/min/kg
CS(=O)(=O)C1(c2cc(N3CCOCC3)nc(-c3cccc4[nH]c(C#N)cc34)n2)CC1	7.2 µM	0.3 µM	
CS(=O)(=O)C1(c2cc(N3CCOCC3)nc(-c3cccc4c3CC(=O)N4)n2)CC1	16 µM	0.12 µM	
CS(=O)(=O)C1(c2cc(N3CCOCC3)nc(-c3cc(Cl)cc4[nH]ccc34)n2)CC1	0.72 µM	0.016 µM	
C[C@H]1COCCN1c1cc(C2(S(C)(=O)=O)CC2)nc(-c2cccc3[nH]ccc23)n1			logD (physchem): 2.8
CS(=O)(=O)Cc1cc(N2CCOCC2)nc(-c2ccc3[nH]ccc3c2)n1	> 30 µM	1.7 µM	
C[C@@H]1COCCN1c1cc(C2(S(C)(=O)=O)CC2)nc(-c2cccc3[nH]ccc23)n1			Papp A→B at 10 µM [4]: 23 ×10⁻⁶ cm/s; TGI (LoVo [17]): Active; logD (physchem): 2.7; TGI (LoVo [18]): Active; Activity [19]: < 50%; Activity [20]: < 50%; bioavailability [21]: 62%

Now from value to compound, other results behind:

IC50 [1]	IC50 [2]	Structure (SMILES)	other results
2 µM	0.033 µM	O=S(=O)(c1ccccn1)C1(c2cc(N3CCOCC3)nc(-c3cccc4[nH]ccc34)n2)CC1	
9.2 µM	0.041 µM	CS(=O)(=O)C1(c2cc(N3CCOCC3)nc(-c3cc(C(N)=O)cc4[nH]ccc34)n2)CC1	
0.18 µM	0.004 µM	CS(=O)(=O)C1(c2cc(N3CCOCC3)nc(-c3cccc4[nH]ccc34)n2)CCOCC1	Papp A→B at 10 µM [4]: 28 ×10⁻⁶ cm/s; logD (physchem): 2.4; solubility at 24 h [5]: 1.8 µM (≈ 0.797 µg/mL); hepatocyte CLint at 1 µM (in vitro): 23 µL/min/1e6 cells; fraction unbound [6]: 0.25; IC50 [7]: > 33 µM; IC50 [8]: 3.3 µM; AUC [9]: 0.32 µM·h; IC50 [10]: 1.4 µM
24 µM	0.72 µM	CN(C)C(=O)c1cc(-c2nc(N3CCOCC3)cc(C3(S(C)(=O)=O)CC3)n2)c2cc[nH]c2c1	
13 µM	0.13 µM	CS(=O)(=O)C1(c2cc(N3CCOCC3)nc(-c3cccc4[nH]ncc34)n2)CC1	
2.8 µM	0.033 µM	O=S(=O)(C1CCOCC1)C1(c2cc(N3CCOCC3)nc(-c3cccc4[nH]ccc34)n2)CC1	
0.28 µM	0.003 µM	CC(C)(c1cc(N2CCOCC2)nc(-c2cccc3[nH]ccc23)n1)S(C)(=O)=O	Papp A→B at 10 µM [4]: 16 ×10⁻⁶ cm/s; IC50 [15]: 0.19 µM; logD (physchem): 2.7; solubility at 24 h [5]: < 0.4 µM; hepatocyte CLint at 1 µM (in vitro): 41 µL/min/1e6 cells; fraction unbound [6]: 0.2; IC50 [8]: 2.7 µM; AUC [9]: 0.76 µM·h; IC50 [10]: 1.6 µM
> 30 µM	0.18 µM	CS(=O)(=O)Cc1cc(N2CCOCC2)nc(-c2cccc3cc[nH]c23)n1	
> 30 µM	1.2 µM	CS(=O)(=O)C1(c2cc(N3CCOCC3)nc(-c3cccc(N)c3)n2)CC1	
> 30 µM	1.1 µM	CS(=O)(=O)C1(c2cc(N3CCOCC3)nc(-c3cccc4[nH]c(C(N)=O)cc34)n2)CC1	
1.1 µM	0.03 µM	CS(=O)(=O)Cc1cc(N2CCOCC2)nc(-c2cccc3[nH]ccc23)n1	IC50 [15]: 0.33 µM; IC50 [16]: 2.7 µM; logD (physchem): 1.7; IC50 [8]: 5.9 µM; IC50 [10]: 3.8 µM
> 30 µM	14 µM	Cc1c[nH]c2cccc(-c3nc(N4CCOCC4)cc(C4(S(C)(=O)=O)CC4)n3)c12	
3.7 µM	0.061 µM	CN1CCC(c2cc(N3CCOCC3)nc(-c3cccc4[nH]ccc34)n2)(S(C)(=O)=O)CC1	logD (physchem): 1.9
6.3 µM	0.22 µM	Cc1ccc(-c2nc(N3CCOCC3)cc(C3(S(C)(=O)=O)CC3)n2)c2cc[nH]c12	
> 30 µM	1.5 µM	CS(=O)(=O)Cc1cc(N2CCOCC2)nc(-c2ccc3cc[nH]c3c2)n1	
0.59 µM	0.005 µM	O=S(=O)(c1ccccc1)C1(c2cc(N3CCOCC3)nc(-c3cccc4[nH]ccc34)n2)CC1	
0.49 µM	0.008 µM	Cc1cc(-c2nc(N3CCOCC3)cc(C3(S(C)(=O)=O)CC3)n2)c2cc[nH]c2c1	
